This is an account of results in paper PMC12368815, “Targeting Cancer with New Morpholine-Benzimidazole-Oxadiazole Derivatives: Synthesis, Biological Evaluation, and Computational Insights” (ACS Omega, 2025).

The test system of series [1] is HT-29 cell line (human colon cancer cell line). Put plainly: MTT cytotoxicity assay on HT-29 colon cancer cells. It is filed as cell-based. To be noted: for IC50: Homo sapiens, HT-29, MTT, mean of four independent assays, read-out: IC50 HT29; for Selectivity index (SI): NIH3T3 versus HT29. How it is done:
(§1) Compounds 5a–5j were evaluated for their anticancer activity via the MTT assay against the HT-29 cell line. […] Both the synthesized compounds and standards were tested across concentrations from 1000 to 0.49 μg/mL.
(§2) The cytotoxic effects of the compounds on colon cancer (HT29, ATCC HTB-38) and normal healthy fibroblast (NIH3T3, ATCC CRL-1658) cell lines were evaluated using the MTT assay. Based on the cytotoxicity data 5c, 5h and 5j stand out in terms of activity.

For series [2], the system named is NIH3T3 (healthy normal fibroblast cells). In words: MTT cytotoxicity assay on NIH3T3 normal fibroblasts. It is filed as cell-based. To be noted: Mus musculus, mean of four independent assays. How it is done: as §1, §2
Another series deals with T1, VEGFR-2 enzyme (Homo sapiens, UniProt P35968).
T1 construct: purchased
T1 sequence (P35968 20-1356): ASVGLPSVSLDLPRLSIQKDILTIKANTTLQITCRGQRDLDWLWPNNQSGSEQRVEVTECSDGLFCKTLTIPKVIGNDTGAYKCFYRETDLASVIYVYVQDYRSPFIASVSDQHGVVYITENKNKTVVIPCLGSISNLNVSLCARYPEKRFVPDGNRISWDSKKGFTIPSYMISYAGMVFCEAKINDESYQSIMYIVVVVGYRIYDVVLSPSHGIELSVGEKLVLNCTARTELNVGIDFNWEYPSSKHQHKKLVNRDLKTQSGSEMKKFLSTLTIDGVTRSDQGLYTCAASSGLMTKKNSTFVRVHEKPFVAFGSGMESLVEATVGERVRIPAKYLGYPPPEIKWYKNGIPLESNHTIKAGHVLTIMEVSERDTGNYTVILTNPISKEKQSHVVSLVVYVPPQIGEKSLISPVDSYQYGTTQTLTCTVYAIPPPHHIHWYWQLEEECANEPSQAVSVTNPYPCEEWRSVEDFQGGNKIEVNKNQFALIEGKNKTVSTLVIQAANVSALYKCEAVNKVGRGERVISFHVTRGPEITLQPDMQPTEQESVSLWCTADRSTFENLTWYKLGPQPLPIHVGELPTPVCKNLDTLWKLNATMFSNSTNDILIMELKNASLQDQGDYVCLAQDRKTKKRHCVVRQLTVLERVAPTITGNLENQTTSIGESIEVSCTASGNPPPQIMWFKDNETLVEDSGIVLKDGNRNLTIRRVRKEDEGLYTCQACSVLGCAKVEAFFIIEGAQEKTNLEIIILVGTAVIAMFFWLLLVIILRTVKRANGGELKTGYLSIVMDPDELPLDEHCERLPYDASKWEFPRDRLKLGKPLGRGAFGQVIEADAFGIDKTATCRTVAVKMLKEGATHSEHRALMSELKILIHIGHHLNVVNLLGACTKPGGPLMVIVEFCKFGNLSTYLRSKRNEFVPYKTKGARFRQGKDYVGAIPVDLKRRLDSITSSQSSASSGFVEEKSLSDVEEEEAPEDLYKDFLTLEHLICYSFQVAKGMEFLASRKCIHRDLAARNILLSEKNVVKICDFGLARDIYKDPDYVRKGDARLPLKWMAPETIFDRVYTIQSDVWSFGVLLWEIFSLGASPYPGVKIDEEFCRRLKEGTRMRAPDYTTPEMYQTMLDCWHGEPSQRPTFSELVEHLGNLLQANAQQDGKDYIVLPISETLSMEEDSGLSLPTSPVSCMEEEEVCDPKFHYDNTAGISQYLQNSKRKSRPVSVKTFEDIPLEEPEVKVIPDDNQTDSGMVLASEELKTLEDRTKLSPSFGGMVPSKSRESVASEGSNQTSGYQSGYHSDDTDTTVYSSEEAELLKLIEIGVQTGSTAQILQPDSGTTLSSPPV
Put plainly: In vitro VEGFR-2 enzyme inhibition assay kit. It is filed as biochemical. The method, then: The inhibitory effects of the synthesized compounds on the VEGFR-2 enzyme were assessed using an in vitro assay kit (Table ).

The subject of the next series is HT-29 cells. Put plainly: Annexin V-FITC/PI flow cytometry apoptosis analysis. It is filed as cell-based, human. To be noted: HT29, compound at IC50 concentration, 24 h, mean of two repetitions. From the text: Programmed cell death-apoptosis is a normal physiological process in healthy organisms that eliminates cells no longer needed. During apoptosis, phosphatidylserine (PS) in the cell membrane is translocated to the outer layer. The Annexin V protein included in the kit binds to this externalized PS, enabling its detection with FITC, a fluorescent marker. Annexin V can also bind to necrotic cells. In such cases, the cells are identified using “Ethidium Homodimer III (EthD-III) (or propidium iodide, PI)”. Flow cytometric assay kits use double-staining protocols to assess apoptosis by detecting differences in cell morphology through the binding efficiency of the Annexin–V complex to PS on the cell surface. , Apoptotic, Necrotic, and Healthy Cells Detection Kit [Available from (Apoptic necrotic kit)] used during flow cytometer analysis.
Briefly, HT-29 cells were plated in six-well plates following the manufacturer’s guidelines and exposed to the compounds at their IC50 concentrations for 24 h. Following treatment, cell suspensions were centrifuged at 1200 rpm for 5 min, and the resulting pellets were rinsed twice with 1 mL of cold phosphate-buffered saline. The assay kits were used according to the manufacturer’s instructions by transferring cells to the appropriate buffer solutions. For each sample, at least 10 000 cells were evaluated. Cell population fractions in various quadrants and gates were determined using quadrant and gate statistical analysis, with settings optimized based on comparison to the untreated control group.
To further investigate the mechanism underlying its anticancer effect, the ability of compound 5h to induce apoptosis was assessed using the Annexin V-FITC/PI dual staining method. The results are presented in Figure , where the data are shown in four quadrants corresponding to different cell populations: live (living) cells correspond to Q1-LL, early apoptotic cells to Q1-LR, late apoptotic cells to Q1-UR, and necrotic cells to Q1-UL.

Molecules are shown by their SMILES. Bounds are passed on as bounds.

Regarding `O=C(CSc1nnc(-c2ccc3nc(-c4ccc(N5CCOCC5)cc4)[nH]c3c2)o1)c1ccc([N+](=O)[O-])cc1` [5g, 2-(5-(2-(4-Morpholinophenyl)-1H-benzo[d]imidazol-6-yl-1,3,4-oxadiazol-2-yl)thio)-1-(4-nitrophenyl) Ethan-1-One], the IC50 was 260 ± 8.68 µM in series [1] and above 1000 µM in series [2].
Take `O=C(CSc1nnc(-c2ccc3nc(-c4ccc(N5CCOCC5)cc4)[nH]c3c2)o1)c1ccccc1` [5a, 2-(5-(2-(4-Morpholinophenyl)-1H-benzo[d]imidazol-6-yl)-1,3,4-oxadiazol-2-ylthio)-1-phenylethan-1-One]: in series [1], the IC50 was 135 ± 3.37 µM and the “Selectivity index (SI)” value came to 1.42. In series [2], this compound gave a concentration for half-maximal inhibition (IC50) of 193 ± 7.56 µM.
Regarding `Cc1ccc(C(=O)CSc2nnc(-c3ccc4nc(-c5ccc(N6CCOCC6)cc5)[nH]c4c3)o2)cc1` [5b, 2-(5-(2-(4-Morpholinophenyl)-1H-benzo[d]imidazol-6-yl)-1,3,4-oxadiazol-2-ylthio)-1-(p-tolyl) Ethan-1-One], in series [1], the 50% inhibitory concentration (IC50) is 22.7 ± 2.39 µM and the “Selectivity index (SI)” value is recorded as 0.46. This compound gave an IC50 in series [2] of 10.5 ± 2.17 µM.
With `N#Cc1ccc(C(=O)CSc2nnc(-c3ccc4nc(-c5ccc(N6CCOCC6)cc5)[nH]c4c3)o2)cc1` [5f, 4-(2-(5-(2-(4-Morpholinophenyl)-1H-benzo[d]imidazol-6-yl-1,3,4-oxadiazol-2-yl) Thio) Acetyl) Benzonitrile], the concentration for half-maximal inhibition (IC50) is 30.2 ± 1.16 µM in series [1] and 14.7 ± 0.818 µM in series [2]. Also, in series [1], the “Selectivity index (SI)” value is on record as 0.49.
The corresponding values for `Cc1ccc(C(=O)CSc2nnc(-c3ccc4nc(-c5ccc(N6CCOCC6)cc5)[nH]c4c3)o2)c(C)c1` [5i, 1-(2,4-Dimethylphenyl)-2-((5-(2-(4-morpholinophenyl)-1H-benzo[d]imidazol-6-yl)-1,3,4-oxadiazol-2-yl) Thio) Ethan-1-One] are 72.1 ± 4.61 µM, 148 ± 3.99 µM and 2.05.
As to `O=C(CSc1nnc(-c2ccc3nc(-c4ccc(N5CCOCC5)cc4)[nH]c3c2)o1)c1ccc(Br)cc1` [5j, 1-(4-Bromophenyl)-2-((5-(2-(4-morpholinophenyl)-1H-benzo[d]imidazol-6-yl)-1,3,4-oxadiazol-2-yl) Thio) Ethan-1-One], the IC50 was 9.66 ± 0.149 µM in series [1], 4.55 ± 0.763 µM in series [2] and 0.098 ± 0.011 µM on VEGFR-2 enzyme. In series [1], the “Selectivity index (SI)” value is 0.47.
Consider `CNC(=O)c1cc(Oc2ccc(NC(=O)Nc3ccc(Cl)c(C(F)(F)F)c3)cc2)ccn1` [Sorafenib, reference compound], for which the IC50 in series [1] came to 2.92 ± 0.214 µM; in series [2], 30.13 ± 0.147 µM.
`COc1ccc(C(=O)CSc2nnc(-c3ccc4nc(-c5ccc(N6CCOCC6)cc5)[nH]c4c3)o2)cc1` [5c, 1-(4-Methoxyphenyl)-2-(5-(2-(4-morpholinophenyl)-1H-benzo[d]imidazol-6-yl-1,3,4-oxadiazol-2-yl) Thio) Ethan-1-One]: the half-inhibitory concentration (IC50) in series [1] is 17.8 ± 1.77 µM; in series [2], 10.4 ± 0.205 µM; on VEGFR-2 enzyme it was 0.918 ± 0.027 µM. Also, in series [1], the “Selectivity index (SI)” value amounted to 0.59.
Consider `O=C(CSc1nnc(-c2ccc3nc(-c4ccc(N5CCOCC5)cc4)[nH]c3c2)o1)c1ccc(Cl)c(Cl)c1` [5h, 1-(3,4-Dichlorophenyl)-2-((5-(2-(4-morpholinophenyl)-1H-benzo[d]imidazol-6-yl)-1,3,4-oxadiazol-2-yl) Thio) Ethan-1-One], for which, in series [1] (HT-29, compared to 5e), the “fold higher cytotoxic activity than compound 5e” value is on record as “approximately 33 fold”. In series [1], the IC50 amounted to 3.1 ± 0.979 µM and the “Selectivity index (SI)” value came to 4.88. The same compound returned an IC50 in series [2] of 15.2 ± 0.987 µM. Also, the concentration for half-maximal inhibition (IC50) against VEGFR-2 enzyme was determined as 0.049 ± 0.002 µM. In the series with HT-29 cells, this compound showed an early apoptosis of 2.05 ± 0.25%, a late apoptosis of 16.95 ± 2.85% and a necrosis of 12.2 ± 2.1%.
Consider `O=C(CSc1nnc(-c2ccc3nc(-c4ccc(N5CCOCC5)cc4)[nH]c3c2)o1)c1ccc(F)cc1` [5d, 1-(4-Fluorophenyl)-2-((5-(2-(4-morpholinophenyl)-1H-benzo[d]imidazol-6-yl)-1,3,4-oxadiazol-2-yl) Thio) Ethan-1-One], for which, in series [1], the IC50 was found to be 175 ± 5.92 µM and the “Selectivity index (SI)” value is 0.93. The compound also gave an IC50 in series [2] of 163 ± 3.75 µM.
The corresponding values for `O=C(CSc1nnc(-c2ccc3nc(-c4ccc(N5CCOCC5)cc4)[nH]c3c2)o1)c1ccc(Cl)cc1` [5e, 1-(4-Chlorophenyl)-2-((5-(2-(4-morpholinophenyl)-1H-benzo[d]imidazol-6-yl)-1,3,4-oxadiazol-2-yl) Thio) Ethan-1-One] are 104 ± 4.53 µM, 5.12 and 531 ± 8.1 µM.
